Counter-ions that a name gives are not always drawn. Like-named read-outs stand apart in the source and are kept apart here.
Key:
[1] = tested on: incoordination; conditions: mouse, in vivo
[2] = tested on: gastric emptying time in humans; assay: Gastric emptying in humans, evaluated by radiologist; type: in vivo; parameters: key to effect on gastric emptying: +: no effect; ++: moderate effect; +++: good effect; ++++: maximum effect
Text: The evaluation was based on the subjective opinion of the radiologist in terms of the time required for the appearance of peristaltic waves and their capacity to evacuate. the stomach, according to the following scheme:

[3] = tested on: catatonia in rats
[4] = tested on: apomorphine-induced gnawing; assay: Antiapomorphine activity (apomorphine-induced gnawing) in the rat; type: in vivo
Text: A number of the compounds of the present invention were screened in parallel with metoclopramide for potential anti-emetic effects against apomorphine-induced gnawing in the rat and as local anaesthetics on the rat sciatic nerve (Table I).
*Antiapomorphine activity in rat scored as […]

[5] = tested on: convulsions induced by strychnine; assay: Strychnine-induced convulsions in the mouse; type: in vivo
[6] = tested on: oxotremorine; conditions: mouse, in vivo
[7] = tested on: spontaneous motor activity; conditions: mouse, in vivo
[8] = in vivo; conditions: rat, po
[9] = tested on: apomorphine-induced vomiting; assay: Apomorphine-induced vomiting in the dog; type: in vivo; conditions: Canis lupus familiaris, po, per os, Table II, read-out: ED50 (95% confidence limits), apomorphine induced vomiting
[10] = tested on: electrically induced convulsions; assay: Electrically induced convulsions in mice; type: in vivo; conditions: mice
[11] = Metabolism and pharmacokinetics in the rat; type: in vivo; conditions: intravenous
[12] = tested on: writhing syndrome; assay: Writhing syndrome induced by intra-peritoneal acetic acid in mice; type: in vivo; conditions: 300 mg/kg per os
Text: The HCl-Clebopride salt does have antipyretic and analgesic activity.

[13] = Metabolism and pharmacokinetics in the rabbit; type: in vivo; conditions: intravenous
[14] = tested on: oxotremorine; assay: Oxotremorine test in mice; conditions: mice previously treated with sub-threshold dose of oxotremorine
[15] = Pharmacokinetics after oral administration of high doses of the malate salt; type: in vivo
[16] = tested on: healthy male volunteers; assay: Acute tolerance following intramuscular and intravenous administration in humans; type: in vivo
Experimental: Another study has been made to investigate the acute tolerance of the malate salt of Clebopride following intramuscular and intravenous administration in humans.
The subjects used were healthy male volunteers between 20 and 24 years of age and were divided into 8 groups and dosed with the test compound according to the following scheme:
Group I: 1 mg intramuscular per day for 5 days
Group II: 1.5 mgs intrasmuscular per day for 5 days
Group III: 2 mgs intramuscular per day for 5 days
Group IV: 0.25 mg intravenously per day for 5 days
Group V: 0.50 mg intravenously per day for 5 days
Group VI: 1 mg intravenously per day for 5 days
Group VII: 1.5 mgs intravenously per day for 5 days
Group VIII: 2 mgs intravenously per day for 5 days
The parameters evaluated were subjective symptoms; psychic disturbances; neurological disturbances; autonomic symptoms; digestive disturbances; urogenital disturbances; skin and mucous membranes; pulse; blood pressure; temperature; other side effects; blood analysis--leucocytes formula, hemoglobin content, erythrocyte sedimentation rate, glucose, cholesterol, urea, hepatic function tests, transaminasas; and urine analysis--density, albumin, sediment.

[17] = Rattus norvegicus, po; rats; per os; Table III; read-out: Antiapomorphine Activity, Rats, ED50 (95% confidence limits)
[18] = 2 mg, compared with 20 mg of metoclopramide

## CCN(CC)CCNC(=O)c1cc(Cl)c(N)cc1OC [Metoclopramide, reference compound]
[1]
  incoordination: cause incoordination
[2]; 10-20 mgs, as a guide
  effect on gastric emptying: +++
[3]; rat, in vivo
  antiemetic doses compared with those causing catatonia: at doses which are far removed from those causing catatonia
[4]; Rattus norvegicus, po; per os; Table I; read-out: ED50 Values
  ED50: ~6 mg/kg
[4]; [17]
  ED50: 11.8 mg/kg
[4]; Rattus norvegicus; read-out: Antiapomorphine in rat
  minimal effective dose: 12.5 mg/kg
[5]
  inhibition of convulsions induced by strychnine: neither Clebopride nor metoclopramide appear to inhibit convulsions induced by strychnine
[6]
  salivation and tremors: capable of causing salivation and tremors
[7]
  spontaneous motor activity: inhibit spontaneous motor activity
[8]
  TD50: 93 mg/kg
[9]
  ED50: 0.343 mg/kg

## COc1cc(N)c(Cl)cc1C(=O)NC1CCN(Cc2ccccc2)CC1 [Clebopride, N-[4'-(1'-benzyl)-piperidyl]-2-methoxy-4-amino-5-chloro-benzamide]
[10]
  potency in preventing electrically induced convulsions: somewhat more potent than metoclopramide
[2]; 0.2 mg by mouth, 6 patients
  No. of Patients with + (no effect): 0
  No. of Patients with ++ (moderate effect): 0
  No. of Patients with +++ (good effect): 6
  No. of Patients with ++++ (maximum effect): 0
[2]; 0.2 mg, compared with 20 mgs of metoclopramide
  contraction of the stomach: as rapid and forceful contraction of the stomach as 20 mgs of metoclopramide
[2]; 1 mg by mouth, 6 patients
  No. of Patients with + (no effect): 1
  No. of Patients with ++ (moderate effect): 2
  No. of Patients with +++ (good effect): 3
  No. of Patients with ++++ (maximum effect): 0
[2]; 2 mg by mouth, 8 patients
  No. of Patients with + (no effect): 0
  No. of Patients with ++ (moderate effect): 2
  No. of Patients with +++ (good effect): 3
  No. of Patients with ++++ (maximum effect): 3
[2]; [18]
  contraction of the stomach: more forceful contraction than 20 mg of metoclopramide
  onset of action: more rapid onset of action
[2]; 5 mg by mouth, 9 patients
  No. of Patients with + (no effect): 0
  No. of Patients with ++ (moderate effect): 2
  No. of Patients with +++ (good effect): 0
  No. of Patients with ++++ (maximum effect): 7
[3]; rat, in words
  catatonia: noted in the rat
[3]; rats, Table III
  antiemetic doses compared with those causing catatonia: exhibits antiemetic activity (anti-apomorphine activity) at doses which are far removed from those causing catatonia
[11]
  pharmacokinetics after intravenous administration: follows a similar pattern in both species
[4]; [17]
  ED50: 1.85 mg/kg
[5]
  inhibition of convulsions induced by strychnine: neither Clebopride nor metoclopramide appear to inhibit convulsions induced by strychnine
[8]
  TD50: 47.6 mg/kg
[12]
  inhibition of writhing syndrome: almost completely inhibited the writhing syndrome
[13]
  pharmacokinetics after intravenous administration: follows a similar pattern in both species
[14]
  salivation and tremors: capable of causing salivation and tremors

## CN(C)CCCN1c2ccccc2Sc2ccc(Cl)cc21 [Chlorpromazine, reference compound]
[4]; Rattus norvegicus, po, read-out: Antiapomorphine Activity, Rats, ED50 (95% confidence limits)
  ED50: 7.95 mg/kg
[4]; Rattus norvegicus, read-out: Antiapomorphine in rat
  minimal effective dose: 6.25 mg/kg
[8]
  TD50: 12.3 mg/kg

## COc1cc(N)c(Cl)cc1C(=O)NC1CCN(Cc2ccccc2)CC1 [malate salt of Clebopride, N-[4'-(1'-benzyl)piperidyl]-2-methoxy-4-amino-5-chlorobenzamide malate]
[15]; high doses
  absorption: good absorption
  appearance of metabolites in blood: rapid appearance of metabolites in blood
  peak levels: rapidly appearing peak levels
  plasma concentrations: relatively low plasma concentrations
[15]; suggested
  first pass metabolism and/or uptake in the liver: extensive first pass metabolism and/or uptake take place in the liver
[16]; Group I: 1 mg intramuscular per day for 5 days, four subjects
  side effects: one case of slight sleepiness was noted from the second day of treatment
[16]; Group II: 1.5 mgs intramuscular per day for 5 days, four subjects
  side effects: Tiredness, sleepiness and fatigue in three of the four subjects in Group II accompanied with slight depression
[16]; Group III: 2 mgs intramuscular per day for 5 days, four subjects
  side effects: Three of the four subjects in Group III showed sleepiness, fatigue and depression followed by euphoria
[16]; Groups II and VII
  blood and urine analysis: no significant variations
[16]; Groups IV to VIII, intravenous
  dose dependence of side effects: not to be dose dependent
[16]; Groups IV to VIII: 0.25 to 2 mgs intravenously per day for 5 days
  side effects: Sleepiness, fatigue and depression of medium intensity were seen in many patients
[16]; Groups VII and VIII: 1.5 and 2 mgs intravenously per day for 5 days
  additional side effects: some degree of sweating, hypersalivation and dryness of the mouth were variously seen
